The results in this text go back to US9102648B1, “Bioavailable diacylhydrazine ligands for modulating the expression of exogenous genes via an ecdysone receptor complex” (Intrexon Corporation, priority 2003, dated 2015).

In data set [1] the target is GAL4 DBD-CfEcR(DEF)/VP16AD-MmRXRE (Choristoneura fumiferana, UniProt O77240). The data set is described as follows: 13B3 Assay (CHO stable cell line, luciferase reporter). The following applies: for Fold Induction, 13B3 Assay, 3.3 uM: 3.3 uM ligand; for Fold Induction, 13B3 Assay, 3.3 uM / Fold Induction, 13B3 Assay, 33 uM: RLU ligand treated / RLU DMSO treated cells; for Fold Induction, 13B3 Assay, 3.3 uM / Fold Induction, 13B3 Assay, 33 uM / EC50: average of two wells; for Fold Induction, 13B3 Assay, 33 uM: 33 uM ligand; for 13B3 assay Rel Max FI: maximum fold induction at any concentration relative to that of GS-E ligand, CHO 13B3 cells; for EC50: read-out: 13B3 EC50, CHO 13B3 stable cell line, luciferase reporter, 48 h. In a few lines:
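CHO 13B3 clone stably expressing GAL4 DBD–CfEcR(DEF) and VP16AD–MmRXR(DE) with GAL4 RE–luciferase reporter; cells plated 24 h at 37 °C, then treated with ligands (DMSO stocks diluted 300-fold), 8 concentrations 33–0.01 μM.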
For orientation: A reporter such as luciferase makes a cellular process visible.

Data set [2] deals with GAL4 DBD (1-147)-CfEcR(DEF)/VP16AD-βRXREF-LmUSPEF (Choristoneura fumiferana, UniProt O77240). The data set is described as follows: cell-based. As to conditions: for Fold Induction, 27-63 Assay, 3.3 uM: 3.3 uM ligand; for Fold Induction, 27-63 Assay, 3.3 uM / Fold Induction, 27-63 Assay, 33 uM: RLU ligand treated / RLU DMSO treated cells; for Fold Induction, 27-63 Assay, 3.3 uM / Fold Induction, 27-63 Assay, 33 uM / EC50: average of two wells; for Fold Induction, 27-63 Assay, 33 uM: 33 uM ligand; for 27-63 assay Rel Max FI: maximum fold induction at any concentration relative to that of GS-E ligand, CHO 27-63 cells; for EC50: read-out: 27-63 assay EC50, CHO 27-63 stable cell line, luciferase reporter.

Usually EC50 stands for the concentration at which the effect is half-maximal.

Turning to `CCc1c(OC)cccc1C(=O)NN(C(=O)c1cc(C)cc(COC(C)=O)c1)C(C)(C)C` [RG-115223], in data set [1], the “Fold Induction, 13B3 Assay, 3.3 uM” value was found to be 8; the “Fold Induction, 13B3 Assay, 33 uM” value came out at 3437; the “13B3 assay Rel Max FI” value worked out at 1.346; the EC50 is greater than 50 µM. In data set [2], the “Fold Induction, 27-63 Assay, 3.3 uM” value came out at 273; the “Fold Induction, 27-63 Assay, 33 uM” value is recorded as 1935; the “27-63 assay Rel Max FI” value was determined as 1.167; the EC50 amounted to 4.69 µM.

For `COc1cccc(C(=O)NN(C(=O)c2cc(C)cc(C)c2)C(C)(C)C)c1[N+](=O)[O-]` [RG-100568], in data set [1], the “Fold Induction, 13B3 Assay, 3.3 uM” value stood at 2; the “Fold Induction, 13B3 Assay, 33 uM” value is reported as 4122; the “13B3 assay Rel Max FI” value turned out to be 1.035; the EC50 came to 44.3 µM. In data set [2], the “Fold Induction, 27-63 Assay, 3.3 uM” value turned out to be 615; the “Fold Induction, 27-63 Assay, 33 uM” value is recorded as 2286; the “27-63 assay Rel Max FI” value is 1.197; the EC50 amounted to 4.13 µM.
